# Source: patent US11666071B2, “Compound salt of N,N-dimethylglycine and an organic acid and composition and use thereof” (GUANGZHOU INSIGHTER BIOTECHNOLOGY CO., LTD., priority 2017, dated 2023)
# Counter-ions that a name gives are not always drawn. Marks after values point to notes of the source that are not given here.
# How the values were obtained:
# [1] = test system: Duroc×Landrace×Large White weaned pigs; assay: Copper salt of N,N-dimethylglycine and fumaric acid on weaned pigs; assay type: in vivo, pig
# Description: The […] utensils were disinfected before the experiment. The pigs were kept in pens in the same […] under the same breeding conditions during the experiment. […] The test was carried out for 15 days. […] The experiment data were analyzed with SPSS18 software.
# [2] = High-humidity stability test (hygroscopic weight gain); assay type: physicochemical; conditions: 25° C.; for hygroscopicity / status of sample: RH 95%; for hygroscopicity / status of sample / hygroscopic weight gain, Day 5 (%): day 5; for hygroscopic weight gain, Day 5 (%) / hygroscopic weight gain, Day 10 (%): RH 95%±1%
# [3] = test system: Duroc×Landrace×Large White weaned pigs; assay: Zinc salt of N,N-dimethylglycine and fumaric acid in weaned-pig feed; assay type: in vivo; conditions: 15 days
# Excerpt: The pigsty and utensils were disinfected before the experiment. The pigs were kept in pens in the same pigsty under the same breeding conditions during the experiment. […] The groups included a control group, a comparative example and experiment groups 1-6. The control group was provided with only the basic diets, the comparative example was provided with 2500 ppm of zinc oxide, and the experiment groups 1-6 were respectively provided with the basic diets together with the hybrid pellet feed additive product 7 provided by the present invention in different concentrations, as shown in Table 9. […] The experiment was carried out for 15 days. […] The experiment data were analyzed with SPSS18 software.
Compound,hygroscopicity / status of sample [2],"hygroscopic weight gain, Day 5 (%) [2]","hygroscopic weight gain, Day 10 (%) [2]",further results
"O.O.O.O.O.O=S(=O)([O-])[O-].[Cu+2] [Copper sulfate pentahydrate, reference compound]",–,–,–,"ADFI ([1]; dose 250 ppm, 15 days): 94.67 ± 1.33 kg; ADG ([1]; dose 250 ppm, 15 days): 46.38 ± 1.01 kg; FCR ([1]; dose 250 ppm, 15 days): 2.042 ± 0.021^b"
"CN(C)CC(=O)O.Cl [Sample 1, N,N-dimethylglycine hydrochloride, reference compound]",very high hygroscopicity,79.86 ± 0.94%,80.69 ± 0.59%,–
"CN(C)CC(=O)[O-].[Na+] [Sample 2, Sodium N,N-dimethylglycinate, reference compound]",very high hygroscopicity,49.09 ± 1.14%,52.44 ± 0.48%,–
"CN(C)CC(=O)O [Sample 6, Calcium salt of N,N-dimethylglycine and sulfuric acid]",water-like status,61.72 ± 0.41%,60.58 ± 0.21%,–
CN(C)CC(=O)[O-].O=C([O-])c1ccccc1.[Cu+2] [Sample 11],–,2.41 ± 0.07%,2.81 ± 0.10%,–
"[O]=[Zn] [Zinc oxide, reference compound]",–,–,–,FCR ([3]; dose 2500 ppm): 1.808 ± 0.018
"Calcium N,N-dimethylglycinate [Sample 3, reference compound]",very high hygroscopicity,38.40 ± 0.22%,41.83 ± 0.35%,–
"Calcium salt of N,N-dimethylglycine and fumaric acid [Sample 8]",–,2.95 ± 0.22%,3.25 ± 0.12%,–
"Calcium salt of N,N-dimethylglycine and p-methylbenzenesulfonic acid [Sample 10]",–,2.84 ± 0.23%,3.01 ± 0.11%,–
"Calcium salt of N,N-dimethylglycine and tetradecanoic acid [Sample 9]",–,2.11 ± 0.04%,2.75 ± 0.32%,–
"Copper salt of N,N-dimethylglycine and fumaric acid [Sample 14]",–,2.56 ± 0.11%,2.81 ± 0.06%,"effect on the average daily weight gain of weaned pigs ([1]; 30-100 ppm, 15 days): no significant effect; effect on the feed intake of weaned pigs ([1]; 30-100 ppm, 15 days): no significant effect; reduction of feed conversion ratio compared with the control group ([1]; dose 100 ppm): 8.61%; dose at which feed conversion ratio is significantly reduced ([1]; weaned pigs, 15 days): 30-100 ppm"
"Zinc salt of N,N-dimethylglycine and fumaric acid [Sample 13]",–,2.26 ± 0.09%,2.76 ± 0.23%,effect on the feed intake of weaned pigs ([3]; 55-520 ppm): no significant effect; dose at which reduction of feed conversion ratio is significant and equivalent to high-dose zinc oxide ([3]; weaned pigs): higher than 390 ppm; dose that significantly increases average daily weight gain to the level of 2500 ppm zinc oxide ([3]; weaned pigs): about 260 ppm
